Patent EP0726261A1, “Herbidical 1,2,4 thiadiazoles” (American Cyanamid Company, priority 1995, dated 1996)

How the values were obtained:
Assay type in all cases: in vivo
[1] = test system: Glycine max; assay: Herbicidal activity, postemergence test (Example 66); conditions: post; 1000 g/ha; assessed visually twenty days after spraying
Method in brief: (§1)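 Damage is graded by eye on a linear 0-9 scale twenty days after treatment, with untreated sown soil or untreated seedlings as reference. The spray, 1000 g/ha in 900 L/ha from an acetone/0.4% Triton X-155 stock diluted in water, goes onto prepared horticultural loam or young plants.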

[2] = test system: Oryza sativa; assay: as above; set-up: key: A rating of 0 indicates growth as untreated control; a rating of 9 indicates death; conditions: post; 1000 g/ha; assessed visually twenty days after spraying
Method in brief: as §1

[3] = test system: Beta vulgaris; assay: as above; set-up: key: A rating of 0 indicates growth as untreated control; a rating of 9 indicates death; conditions: post; 1000 g/ha; assessed visually twenty days after spraying
Method in brief: as §1

[4] = test system: Avena fatua; assay: as above; set-up: key: A rating of 0 indicates growth as untreated control; a rating of 9 indicates death; conditions: post; 1000 g/ha; assessed visually twenty days after spraying
Method in brief: as §1

[5] = test system: Echinochloa crus-galli; assay: as above; set-up: key: A rating of 0 indicates growth as untreated control; a rating of 9 indicates death; conditions: post; 1000 g/ha; assessed visually twenty days after spraying
Method in brief: as §1

[6] = test system: Zea mays; assay: as above; set-up: key: A rating of 0 indicates growth as untreated control; a rating of 9 indicates death; conditions: post; 1000 g/ha; assessed visually twenty days after spraying
Method in brief: as §1

[7] = test system: Sinapsis alba; assay: as above; set-up: key: A rating of 0 indicates growth as untreated control; a rating of 9 indicates death; conditions: post; 1000 g/ha; assessed visually twenty days after spraying
Method in brief: as §1

[8] = test system: Linum usitatissimum; assay: as above; set-up: key: A rating of 0 indicates growth as untreated control; a rating of 9 indicates death; conditions: post; 1000 g/ha; assessed visually twenty days after spraying
Method in brief: as §1

[9] = test system: Oryza sativa; assay: Herbicidal activity, preemergence test (Example 66); set-up: key: A rating of 0 indicates growth as untreated control; a rating of 9 indicates death; conditions: pre; 1000 g/ha; assessed visually twenty days after spraying
Method in brief: as §1

[10] = test system: Glycine max; assay: as above; set-up: key: A rating of 0 indicates growth as untreated control; a rating of 9 indicates death; conditions: pre; 1000 g/ha; assessed visually twenty days after spraying
Method in brief: as §1

[11] = test system: Beta vulgaris; assay: as above; set-up: key: A rating of 0 indicates growth as untreated control; a rating of 9 indicates death; conditions: pre; 1000 g/ha; assessed visually twenty days after spraying
Method in brief: as §1

[12] = test system: Avena fatua; assay: as above; set-up: key: A rating of 0 indicates growth as untreated control; a rating of 9 indicates death; conditions: pre; 1000 g/ha; assessed visually twenty days after spraying
Method in brief: as §1

[13] = test system: Echinochloa crus-galli; assay: as above; set-up: key: A rating of 0 indicates growth as untreated control; a rating of 9 indicates death; conditions: pre; 1000 g/ha; assessed visually twenty days after spraying
Method in brief: as §1

[14] = test system: Zea mays; assay: as above; set-up: key: A rating of 0 indicates growth as untreated control; a rating of 9 indicates death; conditions: pre; 1000 g/ha; assessed visually twenty days after spraying
Method in brief: as §1

[15] = test system: Sinapsis alba; assay: as above; set-up: key: A rating of 0 indicates growth as untreated control; a rating of 9 indicates death; conditions: pre; 1000 g/ha; assessed visually twenty days after spraying
Method in brief: as §1

[16] = test system: Linum usitatissimum; assay: as above; set-up: key: A rating of 0 indicates growth as untreated control; a rating of 9 indicates death; conditions: pre; 1000 g/ha; assessed visually twenty days after spraying
Method in brief: as §1

CC(C)Cc1nsc(C(=O)N[C@@H](C)c2ccccc2)n1 [Example 13, (S)-3-Isobutyl-[1,2,4]thiadiazole-5-carboxylic acid, 1-(phenylethyl)amide]
herbicidal effects on a 0-9 scale, GLXMA [1]: 5 | herbicidal effects on a 0-9 scale, ORYSA [2]: 0 | herbicidal effects on a 0-9 scale, BEAVA [3]: 9 | herbicidal effects on a 0-9 scale, AVEFA [4]: 5 | herbicidal effects on a 0-9 scale, ECHCG [5]: 8 | herbicidal effects on a 0-9 scale, ZEAMX [6]: 2 | herbicidal effects on a 0-9 scale, SINAL [7]: 8 | herbicidal effects on a 0-9 scale, LIUUT [8]: 7 | herbicidal effects on a 0-9 scale, ORYSA [9]: 0 | herbicidal effects on a 0-9 scale, GLXMA [10]: 0 | herbicidal effects on a 0-9 scale, BEAVA [11]: 5 | herbicidal effects on a 0-9 scale, AVEFA [12]: 0 | herbicidal effects on a 0-9 scale, ECHCG [13]: 2 | herbicidal effects on a 0-9 scale, ZEAMX [14]: 0 | herbicidal effects on a 0-9 scale, SINAL [15]: 4 | herbicidal effects on a 0-9 scale, LIUUT [16]: 0
